From patent publication US6858631B1, “Polymorphic, amorphous and hydrated forms of 5-chloro-3-(4-methanesulfonylphenyl)-6′-methyl-[2,3′]bipyridinyl” (Merck & Co., Inc., priority 1999, dated 2005)

How the values were obtained:
[1] = Relative solubility of polymorphic forms; assay type: physicochemical; conditions: at temperatures below 45° C.
Protocol: (§1) Forms I and IV are enantiotropic with Form IV converting to Form I at temperatures greater than 45° C. when in contact with organic solvents.

[2] = Relative thermodynamic stability and interconversion of polymorphic forms; assay type: physicochemical
Protocol: as §1

Compound: Cc1ccc(-c2ncc(Cl)cc2-c2ccc(S(C)(=O)=O)cc2)cn1 [Form IV, 5-chloro-3-(4-methanesulfonylphenyl)-6′-methyl-[2,3′]bipyridinyl]
- solubility relative to Form I [1]: slightly less soluble
- stability relative to Form I ([2]; at temperatures below 45° C.): slightly more stable
- temperature at which Form IV converts to Form I (enantiotropic) ([2]; in contact with organic solvents): greater than 45 °C
